{"source": "patent US20070185028A1", "about": "“Compositions and methods for treatment of protein misfolding and protein aggregation diseases” (priority 2004, published 2007)", "data": [{"target": "beta amyloid (Homo sapiens, UniProt P05067)", "experiment": "αB crystallin protein pin array, binding of beta amyloid", "details": "immobilized 8-mer peptide; absorption at 450 nm", "description": "αB Crystallin peptides that bind the target protein beta-amyloid were identified by screening an αB crystallin protein pin array, which provides a systematic method for evaluating interactions between peptides corresponding to residues 1-175 of human αB crystallin and selected target proteins in a parallel and simultaneous manner.\nPeptides were synthesized on derivatized polyethylene pins arranged in a microtiter plate format. Each peptide was 8 amino acids in length and consecutive peptides were offset by 2 amino acids. All peptides were covalently bonded to the surface plastic pins. The first immobilized peptide was 1MDIAIHHP8 and the last peptide was 168PAVTAAPK175 for the human αB crystallin.\nAfter synthesis, the pins were pre-coated at room temperature with 2% Bovine Serum Albumin (BSA), 0.1% Tween-20 and 0.1% Sodium azide in 10 mM phosphate buffered saline pH 7.2 (PBS) for 1 hr, and washed three times for 10 mins each with 10 mM PBS. To screen for binding to the peptides, fixed concentrations of the target protein beta amyloid was dissolved in 10 mM PBS, containing 0.05% Tween-20, added to each well and incubated for 1 hr at room temperature. The pin array was washed three times for 10 mins each with 10 mM PBS, containing 0.05% Tween-20. Monoclonal or polyclonal primary antibodies for the target protein beta amyloid was diluted into PBS buffer, added to each well and incubated for 1 hr at room temperature. Subsequently, the pin array was washed three times for 10 mins each with 10 mM PBS containing 0.05% Tween-20. Anti-rabbit horse-radish peroxidase conjugate secondary antibodies was diluted into PBS buffer, added to each well and incubated for 1 hr at room temperature. The pin array was washed three times for 10 mins each with 10 mM PBS containing 0.05% Tween-20. A chromogenic substrate of horse-radish peroxidase 3,3′,5,5′-Tetramethylbenzidine (TMB) (Pharmingen, San Diego, Calif.) which is colorless was added, and the reaction was carried out for 45 min.\nThe reaction was stopped by adding 6N sulfuric acid, which changes the color from blue to yellow. The absorption at 450 nm was measured by an ELISA reader (BioTek, Winooski, Vt.).\nThe pin array was regenerated by sonication in a water bath (VWR Aquasonic, West Chester, Pa.) with 100 mM PBS, containing 1% Sodium dodecyl sulfate (SDS) and 0.1% 2-Mercaptoethanol@60° C. for 10 mins. Next, the pin array was rinsed three times in deionized water, preheated to 60° C. for 30 secs each time, and shaken in water preheated at 60° C. for 30 min. The pin array was then washed with methanol at 60° C. for 15 secs and air-dried and stored @−20° C. for future use. Each target protein was assayed 2-5 times against the human αB crystallin protein pin array peptides to verify the reproducibility of the results. Peptides numbered 5, 7, 8, 9, 13, 19, 22, 23, 24, 27, 35, 38, 45, 51, 52, 56, 57, 61, 66, 71, 72, and 79 in Table 2 reproducibly tested positive in the protein pin assay.", "values": [{"sequence": "FSVNLDVK [Peptide 38]", "binding of beta amyloid in the protein pin assay": "positive"}, {"sequence": "LTITSSLS [Peptide 66]", "binding of beta amyloid in the protein pin assay": "positive"}, {"sequence": "WIRRPFFP [Peptide 5]", "binding of beta amyloid in the protein pin assay": "positive"}]}, {"system": "βL crystallin", "experiment": "Chaperone assay, thermal aggregation of βL crystallin", "format": "biochemical", "details": "1:10 target protein:peptide; light scattering 340 nm", "description": "Chaperone Assays. Chaperone assays of the five peptides were performed using previously established methods with minor modifications. Muchowski et al., J Mol Biol 289: 397-411, 1999. A 1:1 monomeric molar ratio of chaperone:target protein was determined to be the optimum ratio and all subsequent chaperone assays of the β3 mutants were performed in triplicate and at a 1:1 monomeric molar ratio of chaperone:target protein in a 96-well ELISA micro-titer plate. […] of the chaperone and βL crystallin were mixed in a total volume of 200 μl buffer (5 mM PBS, pH 7.0). Light scattering at λ=340 nm was measured using a Multiskan MCC/340 plate reader before heating (time=0). After the first reading, the plate was heated at 50° C. and readings were taken at fifteen minute intervals for one hour.\nThe ability of the peptides to suppress the thermal aggregation of βL crystallin was measured spectrophotometrically as light scattering at λ=340 nm from solutions containing 1:10 monomeric molar ratio of target protein:peptide.", "values": [{"sequence": "DRFSVNLDVKHFS", "effect on the thermal aggregation of βL crystallin (ranking)": "identical and slightly lower than the HG peptide"}, {"sequence": "ERTIPITRE", "effect on the thermal aggregation of βL crystallin (ranking)": "identical and slightly lower than the HG peptide"}, {"sequence": "HGKHEERQDE", "effect on the thermal aggregation of βL crystallin (ranking)": "strongest effect"}, {"sequence": "LTITSSLSSDGV", "effect on the thermal aggregation of βL crystallin (ranking)": "identical and slightly lower than the HG peptide"}, {"sequence": "STSLSPFYLRPPSFLRAP", "effect on the thermal aggregation of βL crystallin (ranking)": "weakest effect"}]}]}
